Experimental data taken from patent US8937167B2 (Washington University, priority 2009, dated 2015).
Where “and” joins values, the source holds several entries; their conditions need not be identical. Identical values can stand only once.

Assays:
FimH = FimH (Escherichia coli, UniProt Q1R2J4);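 also: hemagglutination inhibition of guinea pig erythrocytes agglutinated by type 1 piliated uropathogenic E. coli via FimH mannose binding, quantified through serial dilutions of compound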
UTI89 = test: Chronic cystitis mouse model, bladder titers after oral mannoside treatment; type: in vivo, E. coli (UPEC); host C3H/HeN mouse; settings: PO 50 mg/kg, 6 hours posttreatment, relative to PBS
Method: Mice were infected with the uropathogenic E. coli (UPEC) strain UTI89. Animals that established chronic infection were treated at day 12 post infection with 5 doses of 50 mg/kg of Mannoside 8 administered 8 h apart (mice treated with PBS in the same way were included as controls). Mice were sacrificed 48 h post initial dose and bladder titers were enumerated.
In order to determine the therapeutic potential of 6 for treating chronic UTIs, a unique preclinical murine model was adopted. In humans, the ultimate outcome of UPEC infection of the urinary tract ranges from asymptomatic bacteriuria to acute self-limiting infection to chronic/recurrent UTI. Similarly, the outcome of UTI in C3H/HeN mice ranges from self-limiting to long-lasting, chronic cystitis characterized by persistent, high titer bacteriuria (>10^4 colony forming units (CFU)/ml), high titer bacterial bladder burdens at sacrifice >2 weeks post-infection (wpi), chronic inflammation, and urothelial necrosis. […] Thus, C3H/HeN mice were infected with 1×10^7 CFU of UTI89 and mice developing chronic cystitis, as determined by persistent urine titers of […] through 2 weeks post infection (wpi), were PO treated at 2 wpi with 6 at a single dose of 100 or 50 mg/kg to evaluate the ability of mannoside to treat UTI. 6 hours post-treatment bacterial counts in the bladder were enumerated. […]

Compound: CNC(=O)c1cc(C(=O)NC)cc(-c2ccc(O[C@H]3O[C@H](CO)[C@@H](O)[C@H](O)[C@@H]3O)c(C(F)(F)F)c2)c1 [Compound 10, N1,N3-dimethyl-5-[3-(trifluoromethyl)-4-[(2R,3S,4S,5S,6R)-3,4,5-trihydroxy-6-(hydroxymethyl)tetrahydropyran-2-yl]oxy-phenyl]benzene-1,3-dicarboxamide]
- fold more potent in vitro (FimH; 10 relative to 8, Examples 25-29 numbering): 8 fold
- HAI (FimH; Examples 25-29 numbering): 8 nM
- fold improvement (HAI) (FimH; over butyl-α-D-mannoside): 15,000 fold
- fold better (HAI) (FimH; than lead 6, Examples 25-29 numbering): 50 fold
- reduction in bladder bacterial counts (UTI89): 4 log and 3 log
